From patent publication US20110166077A9, “COMBINED THERAPY AGAINST TUMORS COMPRISING SUBSTITUTED ACRYLOYL DISTAMYCIN DERIVATIVES AND RADIOTHERAPY” (Pharmacia Italia S.p.A., priority 2002, published 2011)
Several values for one entry are separate records, joined by “and”; a condition that tells them apart may be missing. Equal values may be shown once. Marks after values point to notes of the source that are not given here.

Key:
[1] = system: SQ20B (radiation-resistant human squamous cell carcinoma of the larynx) cell line; experiment: in vitro clonogenic assay, drug combined with ionizing radiation, SQ20B; type: cell-based; details: for C20 drug concentration corresponding to 20% cell survival / C80 drug concentration corresponding to 80% cell survival: drug alone, 2 h treatment; for Sensitization Ratio SR, Values for each culture: simultaneous schedule (2 h drug, 10 min irradiation at start of 2nd hour), SR<1 = radiosensitisation; for Sensitization Ratio SR, Mean of duplicates: simultaneous schedule
Description: (§1) The remarkable radiosensitisation effect exerted by the α-bromo- or α-chloro-acryloyl-distamycin derivatives, in particular the compounds of formula (I), is shown according to in vitro clonogenic assays on SQ20B (radiation-resistant human squamous cell carcinoma of the larynx) and A431 (human vulval carcinoma) cell lines. In this respect, two different schedule treatments were evaluated either comprising simultaneous exposure to the tested compound of formula (I) and to radiation, or sequential exposure to both these cytotoxic agents in any order, that is drug/radiation or radiation/drug (see details below). As control, the effect of cisplatin in combination with radiotherapy has been tested in the same operative conditions.
(§2) To define a Sensitization Ratio (SR), the clonogenic survival of cells being treated with a combination of irradiation and drug exposure (SX+D) was compared with the product of survival for drug alone (SD) and irradiation alone (SX), as follows SR=SX+D/SD*SX
(§3) From the above, it is clear to the skilled person that if both radiation and drug exerted their cytotoxic effect independently from each other, SR values would be close to 1 whereas, on the contrary, a radiosensitisation effect indicating a synergism between ionizing radiation and drug is characterized by SR values lower than 1 (SR<1).
(§4) For both compounds Compound A and cisplatin, exposures were simultaneous to ionizing radiation in both SQ20B and A431 cell lines. The schedule consisted of 2 h drug treatment with a period of irradiation (10 minutes) starting at the beginning of the 2nd hour of treatment.
(§5) Four data sets for each of Compound A and cisplatin, in each cell line were obtained (see table 1) comprising duplicates of two different drug concentration chosen to yield cytotoxicity values corresponding to 80% (C80) and 20% (C20) survival for treatment with the drug alone. […]

[2] = system: A431 (human vulval carcinoma) cell line; experiment: in vitro clonogenic assay, drug combined with ionizing radiation, A431; type: cell-based; details: for C20 drug concentration corresponding to 20% cell survival / C80 drug concentration corresponding to 80% cell survival: drug alone, 2 h treatment; for Sensitization Ratio SR, Values for each culture: simultaneous schedule (2 h drug, 10 min irradiation at start of 2nd hour), SR<1 = radiosensitisation; for Sensitization Ratio SR, Mean of duplicates: simultaneous schedule
Description: as §1, §2, §3, §4, §5

[3] = drug at C20 (Compound A 350 ng/ml, cisplatin 6.5 μM)
[4] = drug at C80 (Compound A 50 ng/ml, cisplatin 0.4 μM)
[5] = drug at C20 (Compound A 90 ng/ml, cisplatin 5.0 μM)
[6] = drug at C80 (Compound A 20 ng/ml, cisplatin 0.8 μM)

SMILES: C=C(Br)C(=O)Nc1cc(C(=O)Nc2cc(C(=O)Nc3cc(C(=O)Nc4cc(C(=O)NCCNC(=N)N)n(C)c4)n(C)c3)n(C)c2)n(C)c1.Cl [Compound A, N-[5-[[[5-[[[2-[(animoiminomethyl)amino]ethyl]amino]carbonyl]-1-methyl-1H-pyrrol-3-yl]amino]carbonyl]-1-methyl-1H-pyrrol-3-yl]-4-[[[4-[(2-bromo-1-oxo-2-propenyl)amino]-1-methyl-1H-pyrrol-2-yl]carbonyl]amino]-1-methyl-1H-pyrrole-2-carboxamide hydrochloride]
- Sensitization Ratio SR / radiosensitisation effect ([1]; combination with radiotherapy, summary over concentrations): lower than 1
- C20 drug concentration corresponding to 20% cell survival [1]: 350 (C20)^(d) ng/ml
- C80 drug concentration corresponding to 80% cell survival [1]: 50 (C80)^(c) ng/ml
- Sensitization Ratio SR, Values for each culture ([1]; drug at C20 (Compound A 350 ng/ml, cisplatin 6.5 μM), hydrochloride): 0.55 and 0.46
- Sensitization Ratio SR, Values for each culture ([1]; drug at C80 (Compound A 50 ng/ml, cisplatin 0.4 μM), hydrochloride): 0.84 and 0.85
- Sensitization Ratio SR, Mean of duplicates [1, 3]: C20 0.50
- Sensitization Ratio SR, Mean of duplicates [1, 4]: C80 0.85
- C20 drug concentration corresponding to 20% cell survival [2]: 90 (C20) ng/ml
- C80 drug concentration corresponding to 80% cell survival [2]: 20 (C80) ng/ml
- Sensitization Ratio SR, Values for each culture ([2]; drug at C20 (Compound A 90 ng/ml, cisplatin 5.0 μM), hydrochloride): 0.33 and 0.40
- Sensitization Ratio SR, Values for each culture ([2]; drug at C80 (Compound A 20 ng/ml, cisplatin 0.8 μM), hydrochloride): 0.65 and 0.59
- Sensitization Ratio SR, Mean of duplicates [2, 5]: C20 0.37
- Sensitization Ratio SR, Mean of duplicates [2, 6]: C80 0.62

SMILES: N.N.[Cl][Pt][Cl] [cisplatin, reference compound]
- C20 drug concentration corresponding to 20% cell survival [1]: 6.5 (C20) μM
- C80 drug concentration corresponding to 80% cell survival [1]: 0.4 (C80) μM
- Sensitization Ratio SR, Values for each culture [1, 3]: 0.72 and 0.81
- Sensitization Ratio SR, Values for each culture [1, 4]: 0.78 and 0.82
- Sensitization Ratio SR, Mean of duplicates [1, 3]: C20 0.77
- Sensitization Ratio SR, Mean of duplicates [1, 4]: C80 0.80
- C20 drug concentration corresponding to 20% cell survival [2]: 5.0 (C20) μM
- C80 drug concentration corresponding to 80% cell survival [2]: 0.8 (C80) μM
- Sensitization Ratio SR, Values for each culture [2, 5]: 1.08 and 0.86
- Sensitization Ratio SR, Values for each culture [2, 6]: 1.02 and 0.84
- Sensitization Ratio SR, Mean of duplicates [2, 5]: C20 0.97
- Sensitization Ratio SR, Mean of duplicates [2, 6]: C80 0.96
